Where “and” joins values, the source holds several entries; their conditions need not be identical. Equal values may be shown once.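 Tested at 5 concentrations; 48 h exposure; 96-well plates; endpoints linearly interpolated, else capped at highest concentration. GI50: concentration for 50% inhibition of growth. TGI: concentration producing complete growth inhibition.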
Columns and labels:
Test in all cases: NCI tumour cell line growth inhibition, 48 h
[1] = system: OVCAR-3 ovarian
[2] = system: NCI-H23 lung
[3] = system: HCC-2998 colon
[4] = system: NCI-H522 lung
[5] = system: HCT-15 colon
[6] = system: UO-31 renal
[7] = system: BT-549 breast
[8] = system: SK-MEL-5 melanoma
[9] = system: HOP-62 NSCLC
[10] = system: DU-145 prostate

Row | SMILES | GI50 [1] [µM] | TGI [1] [µM] | GI50 [2] | TGI [2] [µM] | GI50 [3] | TGI [3] | GI50 [4] | TGI [4] | GI50 [5] | TGI [5] [µM] | GI50 [6] | TGI [6] | GI50 [7] | TGI [7] | GI50 [8] | TGI [8] | GI50 [9] | TGI [9] | GI50 [10] [µM] | TGI [10]
1 | Cc1c(CN2CCC(Nc3ncnc4sc(CC(F)(F)F)cc34)CC2)ccc2c1cc(C#N)n2Cc1cn[nH]c1 | 10.4 | 24 | 1.33 µM and 2.23 µM | 18.9 | 1.86 µM and 2.8 µM | 4.38 µM and 10.9 µM | 3.77 µM and 5.24 µM | 23.2 µM and > 27.5 µM | 2.62 µM and 3.24 µM | 10.3 | 2.25 µM and 2.46 µM | 20.1 µM and > 41.2 µM | 2.72 µM and 3.16 µM | 17.5 µM and > 27.4 µM | 0.967 µM and 0.958 µM | 2.61 µM and 3.02 µM | 3.38 µM and 5.46 µM | 22 µM and > 44.6 µM | 10.3 | 23.9 µM and > 40.5 µM
2 | CN(C)CC#Cc1cccc(C(=O)c2cnn(-c3ccc(F)cc3)c2N)c1 | > 25 | > 25 | > 25 µM | > 25 | > 25 µM | > 25 µM | > 25 µM | > 25 µM | > 23.8 µM | > 25 | > 25 µM | > 25 µM | > 25 µM | > 25 µM | 16.1 µM | > 25 µM | > 25 µM | > 25 µM | > 25 | > 25 µM
3 | O=C(Nc1ccncc1)C(=O)c1cn(S(=O)(=O)c2ccccc2F)c2ccccc12 | 0.893 | 6.85 | 0.965 µM | > 34.8 | 5.36 µM | > 100 µM | 0.371 µM | 4.09 µM | 0.546 µM | > 100 | 3.66 µM | > 95 µM | 4.41 µM | 54.8 µM | 0.693 µM | 16.2 µM | 1.96 µM | 34.3 µM | 3.48 | 18.5 µM
4 | Nc1ncc(-c2ccc(C(F)(F)F)cc2)c(NC2CCCCCC2)n1 | 35.9 | > 100 | 20 µM | > 100 | 48.5 µM | > 100 µM | 27.7 µM | > 100 µM | 38.8 µM | > 100 | 13 µM | > 100 µM | 34.9 µM | > 100 µM | 12.3 µM | 35 µM | 54.7 µM | > 100 µM | 39.9 | > 100 µM
5 | c1cncc(CNc2ccccc2-c2nnc(Nc3ccc4c(c3)OCCO4)o2)c1 | 0.0452 | 0.228 | 0.226 µM | > 100 | 0.255 µM |  | 0.0369 µM | 7.9 µM | 0.107 µM | > 100 | 4.69 µM | > 100 µM | 0.861 µM | 53 µM | 0.0721 µM | 2.03 µM | 0.181 µM | > 100 µM | 0.244 | 1.54 µM
6 | CCS(=O)(=O)c1ccc(OC)c(Nc2nccc(N(C)c3ccc4c(C)[nH]nc4c3)n2)c1 | 7.42 | > 25 | 6.05 µM | > 25 | 8.18 µM | > 25 µM | 3.57 µM | 10.5 µM | 5.3 µM | 18.3 | 2.05 µM | 10.9 µM | 5.76 µM | 14.5 µM | 4 µM | 8.38 µM | 6.72 µM | > 25 µM | 8.45 | > 25 µM
7 | COc1cc(-c2cc(-c3nc4ccccc4[nH]3)[nH]n2)cc(OC)c1OC | 4 | 16.4 | 2.26 µM | 14.4 | 7.1 µM | 21.5 µM | 1.87 µM | 8.81 µM | 3.43 µM | 24.4 | 2.21 µM | 12.2 µM | 1.8 µM | 8.11 µM | 1.34 µM | 3.94 µM | 3.54 µM | 16.7 µM | 3.9 | 16.7 µM
8 | CCOc1cc2ncc(C#N)c(Nc3ccc(F)c(Cl)c3)c2cc1NC(=O)/C=C/CN(C)C | 0.216 | 1.77 | 1.32 µM | > 7.42 | 1.13 µM | > 10 µM | 0.0231 µM | 0.732 µM | 0.245 µM | 4.07 | 0.046 µM | > 3.46 µM | 0.665 µM | > 7.78 µM | 2.93 µM | > 10 µM | 1.27 µM | > 10 µM | 0.05 | 1.62 µM
9 | Cc1nn2c(/C=C3/C(=O)Nc4ccc(Cl)cc43)c(-c3ccccc3)nc2s1 | 2.79 | 13 | 4.1 µM | > 100 | 9.59 µM | 37 µM | 4.26 µM | 17.9 µM | 4.65 µM | 31.9 | 1.07 µM | 13.2 µM | 3.11 µM | 14.3 µM | 4.07 µM | 23.2 µM | 2.01 µM | 3.99 µM | 2.69 | 7.2 µM
10 | NC1CCC[C@@H](O)[C@H]1O (stereo partly drawn) |  | > 100 |  | > 100 |  | > 100 µM |  | > 100 µM |  | > 100 |  | > 100 µM |  | > 100 µM |  | > 100 µM |  | > 100 µM |  | > 100 µM
11 | NC(=O)C1=C(c2ccccc2)c2ccccc2C1=O |  | 24.6 |  | 33.7 |  | 29.5 µM |  | 45.1 µM |  | 26.8 |  | 33.3 µM |  | 30.9 µM |  | 33.6 µM |  | 28.3 µM |  | 31.3 µM
12 | O=C(CNC(=O)c1cccc2ccccc12)Nc1ccccc1Oc1ccccc1 | 0.19 | 0.638 | 0.658 µM | > 10 | 0.712 µM | > 10 µM | 0.151 µM | 0.612 µM | 0.245 µM | > 10 | 0.643 µM | > 10 µM | 0.41 µM | 5.43 µM | 0.262 µM | 4.1 µM | 0.354 µM | > 10 µM | 0.325 | > 10 µM
13 | C=C1C(=O)O[C@@H]2C[C@@H](C)[C@@H]3[C@@H](OC4OC(COC(C)=O)C(O)C(O)C4O)CC(=O)[C@@]3(C)C[C@H]12 (stereo partly drawn) |  | 3.46 |  | 25.7 |  | 3.14 µM |  | 0.301 µM |  | 0.582 |  | 3.38 µM |  | 3.13 µM |  | 4.86 µM |  | 31.6 µM |  | 21.5 µM
14 | COc1ccc(C(=O)c2cc(OC)c(OC)c(OC)c2)cc1O | 0.0207 | 0.0511 | 0.055 µM | > 100 | 0.0832 µM | > 100 µM | < 0.0164 µM |  | < 0.01 µM | > 100 | 0.296 µM | > 100 µM | 0.0337 µM | > 100 µM | 0.0439 µM | 0.315 µM | 0.0931 µM | > 100 µM | 0.0387 | > 100 µM
